Where “and” joins values, the source holds several entries; their conditions need not be identical. Identical values can stand only once.
Tests used:
canine TRPM8 = target: T1, canine TRPM8 (Canis lupus familiaris, UniProt Q1A7N1); experiment: In vitro canine TRPM8 functional assay (icilin-induced Ca2+ fluorescence, FLIPR/FDSS); assay type: cell-based; conditions: for inhibition at 0.5 µM: HEK293, 0.5 μM compound; for IC50: HEK293 cells stably expressing canine TRPM8, icilin at approx. 80% maximal response, eight-point dose-response; for inhibition at 1 µM: HEK293, 1 μM compound; for inhibition at 0.2 µM: HEK293, 0.2 μM compound
T1 construct: expressed in transfected cells
T1 sequence (Q1A7N1 1-1104): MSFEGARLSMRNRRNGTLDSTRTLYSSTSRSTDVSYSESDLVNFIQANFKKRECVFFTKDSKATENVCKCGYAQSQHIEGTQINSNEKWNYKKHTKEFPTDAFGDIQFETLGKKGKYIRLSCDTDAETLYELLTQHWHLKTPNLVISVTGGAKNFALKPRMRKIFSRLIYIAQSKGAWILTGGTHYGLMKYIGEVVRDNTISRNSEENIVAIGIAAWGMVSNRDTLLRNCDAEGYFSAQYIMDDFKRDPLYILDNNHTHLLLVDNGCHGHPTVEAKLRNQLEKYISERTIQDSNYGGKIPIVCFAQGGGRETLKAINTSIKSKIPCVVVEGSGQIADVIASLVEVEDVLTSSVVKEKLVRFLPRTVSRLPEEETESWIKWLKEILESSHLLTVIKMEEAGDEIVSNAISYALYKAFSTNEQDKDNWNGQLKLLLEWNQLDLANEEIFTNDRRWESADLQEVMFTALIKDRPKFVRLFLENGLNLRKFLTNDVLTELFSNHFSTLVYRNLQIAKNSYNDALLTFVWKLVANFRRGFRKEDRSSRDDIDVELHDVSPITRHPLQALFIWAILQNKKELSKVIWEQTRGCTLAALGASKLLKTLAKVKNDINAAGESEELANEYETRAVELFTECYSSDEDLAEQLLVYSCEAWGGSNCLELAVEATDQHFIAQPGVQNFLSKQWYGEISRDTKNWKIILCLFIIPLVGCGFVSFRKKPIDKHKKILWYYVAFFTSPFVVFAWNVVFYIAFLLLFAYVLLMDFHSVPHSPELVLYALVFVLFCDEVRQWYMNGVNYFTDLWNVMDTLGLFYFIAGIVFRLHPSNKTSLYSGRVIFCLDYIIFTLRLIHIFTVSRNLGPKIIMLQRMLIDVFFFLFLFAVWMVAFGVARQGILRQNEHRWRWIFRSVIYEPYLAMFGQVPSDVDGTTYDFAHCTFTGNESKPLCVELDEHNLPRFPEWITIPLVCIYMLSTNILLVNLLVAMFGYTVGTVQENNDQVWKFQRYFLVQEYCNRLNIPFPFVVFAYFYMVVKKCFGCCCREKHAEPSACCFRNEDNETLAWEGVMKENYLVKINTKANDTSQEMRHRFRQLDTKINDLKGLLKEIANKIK
Experimental: The functional activity of compounds of the formula (I) was determined by measuring changes in intracellular calcium concentration using a Ca^2+-sensitive fluorescent dye. The changes in fluorescent signal were monitored by a fluorescence plate reader, either a FLIPR™ (Molecular Devices) or FDSS (Hamamatsu).
HEK293 cells stably expressing canine TRPM8 were routinely grown as monolayers in Dulbecco's minimum essential medium supplemented with 10% FBS, 2 mM L-glutamine, 100 units/mL penicillin, 100 ug/mL streptomycin and 400 μg/mL G418. Cells were maintained in 5% CO2 at 37° C. At 24 hrs prior to assay, cells were seeded in black wall, clear-base poly-D-lysine coated 384-well plates (BD Biosciences, NJ, USA) at a density of 5,000 cells per well in culture medium and grown overnight in 5% CO2 at 37° C. On assay day, growth media was removed and cells were loaded with Calcium 3 Dye (Molecular Devices) for 35 min at 37° C., under 5% CO2 and then for 25 min at room temperature and atmosphere. Subsequently, cells were tested for agonist-induced increases in intracellular Ca^2+ levels using FLIPR™ or FDSS. Cells were challenged with compounds of the formula (I) (at varying concentrations) and intracellular Ca^2+ was measured for 5 min prior to the addition of icilin to all wells to achieve a final concentration that produces approximately an 80% maximal response.
Maximal fluorescence intensity (FI) achieved upon addition of icilin was exported from the FLIPR or FDSS software and further analyzed using GraphPad Prism 3.02 (Graph Pad Software Inc., CA, U.S.A.). Basal FI was subtracted prior to normalizing data to percent of maximal response. Curves were generated using the average of quadruplicate wells for each data point, were analyzed using nonlinear regression of either sigmoidal dose response or sigmoidal dose response (variable slope). Finally, the EC50 and IC50 values were calculated with the best-fit dose curve determined by GraphPad Prism.

Sprague-Dawley rats = experiment: CFA-induced paw radiant heat hypersensitivity; assay type: in vivo; conditions: rat, 30 mg/kg PO, 24 h after intraplantar CFA, radiant heat withdrawal latency
Experimental: Intraplantar injection of complete Freund's adjuvant (CFA) in rodents results in a long-lasting inflammatory reaction, characterized by a pronounced hypersensitivity to both thermal and mechanical stimuli. This hypersensitivity peaks between 24-72 hours following injection and can last for several weeks. To assess whether test compounds of the formula (I) reverse established hypersensitivity, a 100 μL intraplantar injection of CFA (suspended in a 1:1 emulsion of saline and heat-killed Mycobacterium tuberculosis in mineral oil) can be injected into a single hind paw of Sprague-Dawley rats (typically males ranging from 150-350 g). […]
Each rat is placed in a test chamber on a warm glass surface and allowed to acclimate for approximately 10 minutes. […] An initial (baseline) response latency to the thermal stimulus is recorded for each animal prior to the injection of CFA. Twenty-four hours following intraplantar CFA injection, the response latency of the animal to the thermal stimulus is then re-evaluated and compared to the animal's baseline response time. […] Post-compound treatment withdrawal latencies are assessed at fixed time intervals, typically 30, 60 and 120 minutes. The percent reversal (% R) of hypersenstivitiy is calculated according to the following formula: % Reversal=(Treatment Response−CFA Response)/(Baseline Response−CFA Response)×100.

[1] = HEK293 canine TRPM8, icilin challenge

inhibition at 0.5 µM (canine TRPM8; [1]) [%]	IC50 (canine TRPM8)	SMILES	other results
96	257 nM	O=C(Nc1cccc2cnccc12)C(Nc1ccccc1)c1ccc(C(F)(F)F)cc1 (single isomer, unassigned) [Cpd 30, N-Isoquinolin-5-yl-2-phenylamino-2-(4-trifluoromethyl-phenyl)-acetamide]	–
–	17 nM	O=C(Nc1cccc2cnccc12)C(Nc1ccccc1)c1ccc(C(F)(F)F)cc1 (single isomer, unassigned) [Cpd 31, N-Isoquinolin-5-yl-2-phenylamino-2-(4-trifluoromethyl-phenyl)-acetamide]	% Inh @ 0.5 μM (canine TRPM8; 0.5 μM compound, HEK293 canine TRPM8, icilin challenge, 0.5 µM): 102.16%
104	72 nM and 28.9 nM	O=C(Nc1cccc2cnccc12)C(Nc1ccccc1)c1ccc(C(F)(F)F)cc1 (stereo not shown) [Cpd 4, N-Isoquinolin-5-yl-2-phenylamino-2-(4-trifluoromethyl-phenyl)-acetamide]	inhibition at 1 µM (canine TRPM8; [1]): 102%
–	529 nM	CC(C)(C)c1ccc(C(Nc2ccccc2)C(=O)Nc2cccc3[nH]ccc23)cc1 (stereo not shown) [Cpd 7]	inhibition at 1 µM (canine TRPM8; [1]): 100%
101	261 nM	O=C(Nc1cccc2cnccc12)C(Nc1cccc(Cl)c1)c1ccc(C(F)(F)F)cc1 (stereo not shown) [Cpd 12]	–
86.9	489 nM	O=C(Nc1cccc2cnccc12)C(Nc1ccc(Cl)cc1)c1ccc(C(F)(F)F)cc1 (stereo not shown) [Cpd 13]	–
104	54.9 nM and 44.3 nM	O=C(Nc1cccc2cnccc12)C(Nc1ccccc1F)c1ccc(C(F)(F)F)cc1 (stereo not shown) [Cpd 24, 2-(2-Fluorophenylamino)-N-(isoquinolin-5-yl)-2-(4-(trifluoromethyl)phenyl)acetamide]	% Reversal @ 2 h (Sprague-Dawley rats): 28%
101	84.5 nM	O=C(Nc1cccc2[nH]ncc12)C(Nc1ccccc1)c1ccc(C(F)(F)F)cc1 (stereo not shown) [Cpd 27]	–
98.3	161 nM	O=C(Nc1cccc2cn[nH]c12)C(Nc1ccccc1)c1ccc(C(F)(F)F)cc1 (stereo not shown) [Cpd 28]	–
85.1	441 nM	O=C(Nc1cccc2cccnc12)C(Nc1ccccc1)c1ccc(C(F)(F)F)cc1 (stereo not shown) [Cpd 29]	–
84	226 nM	O=C(Nc1cccc2[nH]ccc12)C(Nc1ccc(F)cc1)c1ccc(C(F)(F)F)cc1 (stereo not shown) [Cpd 34]	–
99	73 nM	O=C(Nc1cccc2cnccc12)C(Nc1ccc(F)cc1)c1ccc(C(F)(F)F)cc1 (stereo not shown) [Cpd 35]	–
95	119 nM	O=C(Nc1cccc2cnccc12)C(Nc1cccc(F)c1)c1ccc(C(F)(F)F)cc1 (stereo not shown) [Cpd 36]	–
94	217 nM	O=C(Nc1cccc2[nH]ccc12)C(Nc1cccc(F)c1)c1ccc(C(F)(F)F)cc1 (stereo not shown) [Cpd 37]	–
84	181 nM	O=C(Nc1cccc2[nH]ccc12)C(Nc1ccccc1)c1ccc(Cl)cc1 (stereo not shown) [Cpd 38]	–
98	115 nM	O=C(Nc1cccc2cnccc12)C(Nc1ccc(F)cc1F)c1ccc(C(F)(F)F)cc1 (stereo not shown) [Cpd 50]	–

Further lines, the molecule ahead of its results:

SMILES	inhibition at 0.5 µM (canine TRPM8; [1]) [%]	IC50 (canine TRPM8)	other results
CC(C)(C)c1ccc(C(Nc2ccccc2)C(=O)Nc2cccc3cnccc23)cc1 (stereo not shown) [Cpd 1]	–	35.8 nM	inhibition at 1 µM (canine TRPM8; [1]): 103%
CN(c1ccccc1)C(C(=O)Nc1cccc2cnccc12)c1ccc(C(C)(C)C)cc1 (stereo not shown) [Cpd 3]	–	301 nM	inhibition at 1 µM (canine TRPM8; [1]): 101%
CC(C)(C)c1ccc(C(Nc2ccccc2)C(=O)Nc2cccc3[nH]ncc23)cc1 (stereo not shown) [Cpd 5]	–	118 nM	inhibition at 1 µM (canine TRPM8; [1]): 100%
CC(C)(C)c1ccc(C(Nc2ccccc2)C(=O)Nc2ccc3cnccc3c2)cc1 (stereo not shown) [Cpd 8]	–	438 nM	inhibition at 1 µM (canine TRPM8; [1]): 97.5%
O=C(NC1CCc2ccccc21)C(Nc1ccccc1)c1ccc(C(F)(F)F)cc1 (stereo not shown) [Cpd 10, N-Indan-1-yl-2-phenylamino-2-(4-trifluoromethyl-phenyl)-acetamide]	–	158 nM	inhibition at 1 µM (canine TRPM8; [1]): 100%
O=C(Nc1cccc2cnccc12)C(Nc1ccccc1Cl)c1ccc(C(F)(F)F)cc1 (stereo not shown) [Cpd 11]	104	89.1 nM	–
O=C(Nc1cccc2cnccc12)C(c1ccc(C(F)(F)F)cc1)N1CCc2ccccc21 (stereo not shown) [Cpd 18, 2-(Indolin-1-yl)-N-(isoquinolin-5-yl)-2-(4-(trifluoromethyl)phenyl)acetamide]	104	103 nM	–
O=C(Nc1cccc2cnccc12)C(c1ccc(C(F)(F)F)cc1)N1CCCc2ccccc21 (stereo not shown) [Cpd 19]	79.7	586 nM	–
CC(C)(C)c1ccc(C(Nc2ccccc2)C(=O)Nc2cccc3cn[nH]c23)cc1 (stereo not shown) [Cpd 20]	101	233 nM	–
COc1ccccc1NC(C(=O)Nc1cccc2cnccc12)c1ccc(C(F)(F)F)cc1 (stereo not shown) [Cpd 21]	95.3	287 nM	–
Cc1ccccc1NC(C(=O)Nc1cccc2cnccc12)c1ccc(C(F)(F)F)cc1 (stereo not shown) [Cpd 22]	104	38.4 nM	–
Cc1cccc(C)c1NC(C(=O)Nc1cccc2cnccc12)c1ccc(C(F)(F)F)cc1 (stereo not shown) [Cpd 25]	99	273 nM	–
O=C(Nc1cccc2cnccc12)C(Nc1ccccc1)c1ccc(Cl)cc1 (stereo not shown) [Cpd 39]	93	158 nM	–
O=C(Nc1cccc2cnccc12)C(Nc1ccccc1F)c1ccc(Br)cc1 (stereo not shown) [Cpd 41]	98	82 nM	–
O=C(Nc1cccc2cnccc12)C(Nc1ccccc1)c1cccc(C(F)(F)F)c1 (stereo not shown) [Cpd 42]	96	109 nM	–
O=C(Nc1cccc2cnccc12)C(Nc1ccccc1F)c1ccc(Cl)cc1 (stereo not shown) [Cpd 44]	98	96.8 nM	–
O=C(Nc1cccc2cnccc12)C(Nc1c(F)cccc1F)c1ccc(Cl)cc1 (stereo not shown) [Cpd 48]	98	94 nM	–
O=C(Nc1cccc2ncccc12)C(Nc1c(F)cccc1F)c1ccc(Cl)cc1 (stereo not shown) [Cpd 49]	83	92 nM	–
O=C(Nc1cccc2cnccc12)C(Nc1cccc(F)c1F)c1ccc(Cl)cc1 (stereo not shown) [Cpd 51]	87	273 nM	–
O=C(Nc1cccc2ncccc12)C(Nc1cccc(F)c1F)c1ccc(Cl)cc1 (stereo not shown) [Cpd 52]	80	219 nM	–
O=C(Nc1cccc2cnccc12)C(Nc1cc(F)ccc1F)c1ccc(Cl)cc1 (stereo not shown) [Cpd 53]	–	65.3 nM	inhibition at 0.2 µM (canine TRPM8; [1]): 90%
O=C(Nc1cccc2ncccc12)C(Nc1cc(F)ccc1F)c1ccc(Cl)cc1 (stereo not shown) [Cpd 54]	–	107 nM	inhibition at 0.2 µM (canine TRPM8; [1]): 77%
O=C(Nc1cccc2cnccc12)C(Sc1ccccc1)c1ccc(C(F)(F)F)cc1 (stereo not shown) [Cpd 56, N-(Isoquinolin-5-yl)-2-(phenylthio)-2-(4-(trifluoromethyl)phenyl)acetamide]	–	130 nM	–

— patent publication US8653099B2, “Cold menthol receptor antagonists” (Janssen Pharmaceutica, priority 2008, dated 2014)
